Several values for one entry are separate records, joined by “and”; a condition that tells them apart may be missing. Identical values can stand only once.
Assays:
[1] = test system: Human ovarian cancer cell line A2780; test: A2780 human ovarian cancer xenograft model: tumor weight; type: in vivo, athymic female mice; design: key to Mouse status printed in place of tumor weight: FD = Found Dead; TS = Terminal Sacrifice; conditions: for Tumor weight, individual mice: listed as PGX ODSH; for Mouse status printed in place of tumor weight: Groups 2 and 3
Method: ODSH (50 mg/mL stock concentration) was made by Pyramid Laboratories, Inc. and stored at room temperature until use. As described further below, ODSH was administered either intravenously (IV), at a dose of 48 mg/kg and volume of 10 mL/kg, or subcutaneously (SC) at a dose of 24 mg/kg and volume of 5 ml/kg. Carboplatin obtained from a clinical supplier was stored at 4° C. until use. Carboplatin was administered by intraperitoneal injection (IP) at a dose of 80 mg/kg and volume of 10 mL/kg. Saline solution (0.9% NaCl) was used as a vehicle control for ODSH and administered by the same routes and in the same volumes as ODSH.
Human ovarian cancer cell line A2780 was used in the murine xenograft experiments as follows. Approximately 5×10^6 A2780 cells were used per mouse, injected subcutaneously into the right flank in 0.1 mL of 50% Matrigel/50% media. The study was initiated when tumors reached a size of 90-130 mg. 40 mice were used, 10 per treatment regimen. The mice were normal athymic female mice, aged 6-7 weeks, housed in microisolator cages and maintained under pathogen-free conditions. Tumor and body weights were measured three times per week.
Four treatment groups were studied.

white blood cells = test: Clinical trial, metastatic pancreatic cancer: total white blood cell count; type: in vivo, human; conditions: individual patients, ODSH adjunctive to gemcitabine and nab-paclitaxel
From the text: Male and non-pregnant, non-lactating, female patients, aged 18 to 75, with histologically confirmed metastatic adenocarcinoma of the pancreas were enrolled in the trial. […] In addition, patients were screened for blood chemistry levels, including serum creatinine levels within normal limits, serum transaminase levels of […] the upper limit of normal, and bilirubin levels of 1.5 times the upper limit of normal […].
Treatment consisted of a series of 28-day cycles, wherein the last day of one cycle (e.g., day 28, cycle 1) was immediately followed by the first day of the next cycle (e.g., day 1, cycle 2). In each 28-day treatment cycle, patients were dosed at days 1, 8, and 15 (three weeks of medication followed by one week of rest) as follows. First, nab-paclitaxel at 125 mg/m^2 was administered as an intravenous infusion over 30 minutes. […] Nab-paclitaxel and gemcitabine therapy was given as described in the prescribing information for Abraxane® and Gemzar®. See also, Von Hoff et al., 2011, J. Clinical Oncology 29:1-7). […]
An initial run-in period was conducted in which ten patients were treated with the gemcitabine, nab-paclitaxel, and ODSH regimen described above. After all ten patients had completed at least one 28-day cycle, the data were reviewed and an open-label randomized study initiated, with two arms (ODSH arm and Control arm). In the ODSH arm, the dosing regimen was the same as in the run-in period (gemcitabine, nab-paclitaxel, and ODSH). In the Control arm, patients were given the same gemcitabine and nab-paclitaxel regimen as in the run-in period, but without ODSH.
Blood was drawn before treatment administration on days 1, 8, and 15 of each 28 day cycle. Platelet counts, total white blood cell counts, and absolute neutrophil counts were performed. Grading of thrombocytopenia and/or neutropenia was performed according to the following standards: […]

clotting time (aPTT) = test: aPTT assay, clotting time after administration to a subject; type: in vivo; conditions: administered to a subject at a (dose equivalent to a) fully-anticoagulating dose of unfractionated heparin; normal about 27 to 35 seconds
From the text: In various preferred embodiments, the PF4-interacting heparinoid is substantially nonanticoagulant. Anti-coagulation activity can be determined using assays known in the art, e.g., activated partial thromboplastin time (aPTT), prothrombin time, anti-Xa clotting and amidolytic assays. See, e.g., U.S. Pat. No. 5,668,118, Example IV; Fryer et al., 1997, J. Pharmacol. Exp. Ther. 282: 208-219, at page 209; Rao et al., 2010, Am. J. Physiol. 299:C97-C110, at page C98; United States Pharmacopeial Convention 1995 (for USP anticoagulant assay and amidolytic assay).
In contrast to unfractionated heparin, ODSH is substantially non-anticoagulating: administered to a subject at a dose that is equivalent to a fully-anticoagulating dose of unfractionated heparin, the clotting time measured in an aPTT assay is no greater than 45 seconds, and typically in the upper range of normal, where normal clotting time ranges from about 27 to 35 seconds. By comparison, unfractionated heparin administered to a subject at a fully anticoagulant dose causes time to clot to range from about 60 to about 85 seconds in an aPTT assay. Another measure of ODSH's anticoagulant activity is its anti-Xa activity which can be determined in an assay carried out using plasma treated with Russell viper venom. […] Whether or not a heparinoid is substantially non-anticoagulating can be determined using any of the above assays.

Substance: substantially 2-O, 3-O desulfated heparin [ODSH]
- Tumor weight, Mean ([1]; Day 1): 107.0 mg
- Tumor weight, Median ([1]; Day 1): 105.5 mg
- Tumor weight, individual mice ([1]; Day 1, Mouse 1-10): 104 mg (2×) and 107 mg and 109 mg and 112 mg and 120 mg and 126 mg and 90 mg and 96 mg and 101 mg
- Tumor weight, Mean ([1]; Day 4): 146.8 mg
- Tumor weight, Median ([1]; Day 4): 134.2 mg
- Tumor weight, individual mice ([1]; Day 4, Mouse 1-10): 159 mg and 111 mg and 195 mg and 131 mg and 173 mg and 124 mg and 200 mg and 121 mg and 117 mg and 138 mg
- Tumor weight, Mean ([1]; Day 6): 240.3 mg
- Tumor weight, Median ([1]; Day 6): 238.2 mg
- Tumor weight, individual mice ([1]; Day 6, Mouse 1-10): 309 mg and 215 mg and 347 mg and 264 mg and 235 mg and 139 mg and 282 mg and 241 mg and 171 mg and 201 mg
- Tumor weight, Mean ([1]; Day 8): 382.2 mg
- Tumor weight, Median ([1]; Day 8): 392.0 mg
- Tumor weight, individual mice ([1]; Day 8, Mouse 1-10): 449 mg and 321 mg and 639 mg and 413 mg and 411 mg and 183 mg and 422 mg and 373 mg and 315 mg and 296 mg
- Tumor weight, Mean ([1]; Day 11): 609.6 mg
- Tumor weight, Median ([1]; Day 11): 585.4 mg
- Tumor weight, individual mice ([1]; Day 11, Mouse 1-10): 816 mg and 366 mg and 910 mg and 653 mg and 536 mg and 349 mg and 811 mg and 635 mg and 491 mg and 529 mg
- Tumor weight, Mean ([1]; Day 14): 984.4 mg
- Tumor weight, Median ([1]; Day 14): 949.7 mg
- Tumor weight, individual mice ([1]; Day 14, Mouse 1-10): 1,303 mg and 670 mg and 1,499 mg and 1,032 mg and 868 mg and 559 mg and 1,253 mg and 1,084 mg and 815 mg and 762 mg
- Tumor weight, Mean ([1]; Day 18): 1,501.7 mg
- Tumor weight, Median ([1]; Day 18): 1,591.5 mg
- Tumor weight, individual mice ([1]; Day 18, Mouse 1-10): 1,796 mg and 1,150 mg and 1,836 mg and 1,568 mg and 1,714 mg and 891 mg and 1,869 mg and 1,615 mg and 1,157 mg and 1,422 mg
- Tumor weight, Mean ([1]; Day 21): 2,072.6 mg
- Tumor weight, Median ([1]; Day 21): 1952.5 mg
- Tumor weight, individual mice ([1]; Day 21, Mouse 1-10): 2,692 mg and 1,467 mg and 2,639 mg and 1,852 mg and 1,880 mg and 1,289 mg and 2,560 mg and 2,642 mg and 1,681 mg and 2,025 mg
- Tumor weight, Mean ([1]; Day 25): 2,343.5 mg
- Tumor weight, Median ([1]; Day 25): 2,422.8 mg
- Tumor weight, individual mice ([1]; Day 25, Mouse 1-10): 2,414 mg and 2,464 mg and 2,599 mg and 1,817 mg and 2,423 mg
- Mouse status printed in place of tumor weight ([1]; Day 25, individual mice): TS
- Tumor weight, Mean ([1]; Day 28): 3,349.0 mg
- Tumor weight, Median ([1]; Day 28): 3,251.6 mg
- Tumor weight, individual mice ([1]; Day 28, Mouse 1-10): 3,909 mg and 3,784 mg and 3,252 mg and 2,671 mg and 3,129 mg
- Mouse status printed in place of tumor weight ([1]; Day 28, individual mice): TS
- White Blood Cell Counts (white blood cells; Cycle 1 Day 1): 6.8 ×10^3/μl blood and 7.7 ×10^3/μl blood and 7.3 ×10^3/μl blood and 5.0 ×10^3/μl blood and 4.6 ×10^3/μl blood and 6.5 ×10^3/μl blood and 5.7 ×10^3/μl blood and 8.7 ×10^3/μl blood and 6.0 ×10^3/μl blood and 7.2 ×10^3/μl blood
- White Blood Cell Counts (white blood cells; Cycle 1 Day 8): 4.4 ×10^3/μl blood and 6.2 ×10^3/μl blood and 2.7 ×10^3/μl blood and 5.3 ×10^3/μl blood and 2.8 ×10^3/μl blood and 5.1 ×10^3/μl blood and 2.3 ×10^3/μl blood and 5.7 ×10^3/μl blood and 3.4 ×10^3/μl blood and 4.1 ×10^3/μl blood
- White Blood Cell Counts (white blood cells; Cycle 1 Day 15): 4.2 ×10^3/μl blood and 5.1 ×10^3/μl blood and 2.1 ×10^3/μl blood and 6.0 ×10^3/μl blood and 2.0 ×10^3/μl blood and 3.2 ×10^3/μl blood and 2.7 ×10^3/μl blood (2×) and 5.4 ×10^3/μl blood and 1.5 ×10^3/μl blood
- White Blood Cell Counts (white blood cells; Cycle 2 Day 1): 4.9 ×10^3/μl blood and 7.8 ×10^3/μl blood and 17.8 ×10^3/μl blood and 5.9 ×10^3/μl blood and 6.5 ×10^3/μl blood and 5.7 ×10^3/μl blood and 11.0 ×10^3/μl blood and 3.4 ×10^3/μl blood and 10.8 ×10^3/μl blood
- White Blood Cell Counts (white blood cells; Cycle 2 Day 8): 10.2 ×10^3/μl blood and 4.5 ×10^3/μl blood and 4.6 ×10^3/μl blood and 2.9 ×10^3/μl blood and 6.4 ×10^3/μl blood
- White Blood Cell Counts (white blood cells; Cycle 2 Day 15): 3.4 ×10^3/μl blood and 4.3 ×10^3/μl blood and 5.4 ×10^3/μl blood and 2.4 ×10^3/μl blood and 4.4 ×10^3/μl blood
- White Blood Cell Counts (white blood cells; Cycle 3 Day 1): 6.0 ×10^3/μl blood and 7.6 ×10^3/μl blood and 4.8 ×10^3/μl blood and 5.8 ×10^3/μl blood
- White Blood Cell Counts (white blood cells; Cycle 3 Day 8): 4.8 ×10^3/μl blood and 2.7 ×10^3/μl blood
- White Blood Cell Counts (white blood cells; Cycle 3 Day 15): 4.3 ×10^3/μl blood
- White Blood Cell Counts (white blood cells; Cycle 4 Day 1): 8.5 ×10^3/μl blood
- White Blood Cell Counts (white blood cells; Cycle 4 Day 8): 6.0 ×10^3/μl blood
- White Blood Cell Counts (white blood cells; Screen): 8.5 ×10^3/μl blood and 6.7 ×10^3/μl blood (2×) and 6.3 ×10^3/μl blood and 6.5 ×10^3/μl blood and 10.8 ×10^3/μl blood and 10.6 ×10^3/μl blood and 6.0 ×10^3/μl blood and 7.3 ×10^3/μl blood
- Clotting time in aPTT assay (clotting time (aPTT)): ≤ 45 s

Reference: patent publication US11229664B2, “Treatment of myelosuppression” (priority 2012, dated 2022)
